Reference: PubChem BioAssay (NCI)
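Test compounds were applied to cells in 96-well plates for 48 hours at 5 doses. The concentration for 50% growth inhibition is given as GI50. TGI denotes the concentration required for complete inhibition of growth.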

Key:
Assay in all cases: NCI anticancer screen, dose series, 48 h
CCRF-CEM leukemia = test system: CCRF-CEM leukemia
K-562 leukemia = test system: K-562 leukemia
HCC-2998 colon = test system: HCC-2998 colon
RXF 393 renal = test system: RXF 393 renal
A549 NSCLC = test system: A549 NSCLC
T-47D breast = test system: T-47D breast
IGROV1 ovarian = test system: IGROV1 ovarian
MDA-MB-231 breast = test system: MDA-MB-231 breast
UACC-257 melanoma = test system: UACC-257 melanoma
HOP-92 NSCLC = test system: HOP-92 NSCLC
HS 578T breast = test system: HS 578T breast
PC-3 prostate = test system: PC-3 prostate
SW-620 colon = test system: SW-620 colon
OVCAR-8 ovarian = test system: OVCAR-8 ovarian
NCI-H522 lung = test system: NCI-H522 lung
A498 renal = test system: A498 renal

| SMILES | TGI (CCRF-CEM leukemia) | TGI (K-562 leukemia) | TGI (HCC-2998 colon) | TGI (RXF 393 renal) | TGI (A549 NSCLC) | TGI (T-47D breast) | TGI (IGROV1 ovarian) | TGI (MDA-MB-231 breast) | TGI (UACC-257 melanoma) | TGI (HOP-92 NSCLC) | TGI (HS 578T breast) | TGI (PC-3 prostate) | TGI (SW-620 colon) | TGI (OVCAR-8 ovarian) | TGI (NCI-H522 lung) | TGI (A498 renal) | GI50 (CCRF-CEM leukemia) | GI50 (K-562 leukemia) | GI50 (UACC-257 melanoma) |
| --- | --- | --- | --- | --- | --- | --- | --- | --- | --- | --- | --- | --- | --- | --- | --- | --- | --- | --- | --- |
| CCOC(=O)c1c(-c2ccc(OC)cc2)c(C#N)c(=S)n(C2OC(CO)C(O)C(O)C2O)c1-c1ccccc1 (configuration not stated) | > 100 µM | > 100 µM | > 100 µM | 75.7 µM | > 100 µM | > 100 µM | > 100 µM | > 100 µM | > 100 µM | 32.8 µM | 70 µM | > 100 µM | > 100 µM |  |  |  |  |  |  |
| O=S(CCCl)c1c2ccccc2nc2ccccc12 (configuration not stated) | > 100 µM | > 100 µM | > 100 µM | > 100 µM | > 100 µM | > 100 µM | > 100 µM | > 100 µM | > 100 µM | > 100 µM |  | > 100 µM | > 100 µM | > 100 µM | 35.6 µM | > 100 µM |  |  |  |
| CCCCCCCC/C=C\CCCCCCCC(=O)NCCN(CCN)C(=O)CCCCCCC/C=C\CCCCCCCC | > 100 µM | > 100 µM | > 100 µM |  | > 100 µM |  | > 100 µM |  | > 100 µM | > 100 µM |  |  | > 100 µM | > 100 µM |  | > 100 µM |  |  |  |
| c1cncc(-c2ncc3cccnc3n2)c1 | > 100 µM | > 100 µM | > 100 µM | > 100 µM | > 100 µM |  | > 100 µM | > 100 µM | > 100 µM | > 100 µM | > 100 µM | > 100 µM | > 100 µM | > 100 µM | > 100 µM | > 100 µM |  |  |  |
| O=C(OCC1OC(c2nn[nH]n2)C(OC(=O)c2ccccc2)C1OC(=O)c1ccccc1)c1ccccc1 (configuration not stated) | > 100 µM | > 100 µM | > 100 µM | > 100 µM | > 100 µM |  |  |  | > 100 µM | > 100 µM |  | > 100 µM | > 100 µM | > 100 µM |  | > 100 µM |  |  |  |
| N/N=C1\CCCc2c1no[n+]2[O-] | > 100 µM | > 100 µM | > 100 µM | > 100 µM | > 100 µM |  | > 100 µM | > 100 µM | > 100 µM |  | > 100 µM | > 100 µM | > 100 µM | > 100 µM | > 100 µM | > 100 µM |  |  |  |
| COc1nc2sc3c(c2c(=O)n1CCCSSCCCn1c(OC)nc2sc4c(c2c1=O)CCCC4)CCCC3 | > 100 µM | > 100 µM | > 100 µM | > 100 µM | > 100 µM | > 100 µM | > 100 µM | > 100 µM | > 100 µM | > 100 µM |  | > 100 µM |  | > 100 µM | > 100 µM |  |  |  |  |
| CCOP(=O)(OCC)/C(C#N)=C/c1cccn1CC(C)C |  | > 100 µM | > 100 µM | > 100 µM | > 100 µM | > 100 µM | > 100 µM | > 100 µM | > 100 µM | > 100 µM |  | > 100 µM | > 100 µM | > 100 µM | > 100 µM | > 100 µM |  |  |  |
| O=C(NCCO)Nc1c(C(F)(F)F)cc(-c2ccccc2)[nH]c1=O | > 100 µM | > 100 µM | > 100 µM | > 100 µM | > 100 µM | > 100 µM | > 100 µM | > 100 µM | > 100 µM | > 100 µM |  | > 100 µM | > 100 µM | > 100 µM |  | > 100 µM |  |  |  |
| CN(C)c1nc(NN)c2c(-c3ccccc3)c(-c3ccccc3)oc2n1 | > 100 µM | > 100 µM | > 100 µM | > 100 µM | > 100 µM | > 100 µM | > 100 µM | > 100 µM | > 100 µM | > 100 µM | > 100 µM |  | > 100 µM | > 100 µM | > 100 µM | > 100 µM |  |  |  |
| CC(C)NC(=O)OCCN=C1c2ccccc2CCc2ccccc21 | 46.5 µM | 59 µM | 39 µM | > 100 µM | > 100 µM | 66.1 µM | > 100 µM | 66.7 µM | 46 µM | 55 µM | 78.3 µM | 62.4 µM | > 100 µM | > 100 µM |  |  |  |  |  |
| COc1ccc([C@H]2CC(=O)NCCCCN2)cc1 | > 100 µM | > 100 µM |  | > 100 µM | > 100 µM |  | > 100 µM |  | > 100 µM | > 100 µM |  |  |  | > 100 µM | > 100 µM | > 100 µM |  |  |  |
| COc1ccc2c(c1)OC[C@@H]1c3cc4c(cc3O[C@H]21)OCO4 | > 100 µM | > 100 µM | > 100 µM | > 100 µM | > 100 µM |  |  |  |  | > 100 µM |  |  | > 100 µM | > 100 µM | > 100 µM | > 100 µM |  |  |  |
| Cc1[nH]c(=O)nc(NCCNCCO)c1C(=O)Nc1c2ccccc2nc2ccccc12 | > 100 µM | > 100 µM | > 100 µM | > 100 µM | > 100 µM | > 100 µM | > 100 µM | > 100 µM | > 100 µM | > 100 µM |  | > 100 µM | > 100 µM | > 100 µM | > 100 µM | > 100 µM |  |  |  |
| C=C1c2nc3ccccc3n2C=C(c2ccccc2)N1c1ccccc1 | > 100 µM | > 100 µM | 28.8 µM | > 100 µM | > 100 µM |  | > 100 µM | > 100 µM | > 100 µM | > 100 µM |  | > 100 µM | > 100 µM | > 100 µM | > 100 µM | > 100 µM |  |  |  |
| COc1cccc(N2C(=O)CSC2c2cc(OC)c(OC)c(OC)c2)c1 (configuration not stated) | 65 µM | > 100 µM | 85.2 µM |  | > 100 µM |  | > 100 µM | > 100 µM | > 100 µM | > 100 µM | > 100 µM | > 100 µM | > 100 µM | > 100 µM | 90.4 µM | > 100 µM |  |  |  |
| COP1(=O)Oc2ccccc2C(=O)C(C(F)(F)F)(C(F)(F)F)O1 (configuration not stated) | > 100 µM | > 100 µM | > 100 µM | > 100 µM | > 100 µM |  | > 100 µM |  | > 100 µM | > 100 µM |  |  | > 100 µM | > 100 µM | > 100 µM | > 100 µM |  |  |  |
| O=C(/C=C/c1ccco1)CC(=O)/C=C/c1ccco1 | 16.3 µM | 26.7 µM | 17.3 µM | 10.6 µM | 24.5 µM | > 31.6 µM | > 31.6 µM |  | > 100 µM | 71.7 µM | 26.8 µM |  | 17.1 µM | > 31.6 µM | 14.1 µM | 36.7 µM |  |  |  |
| CCOC(=O)CCC(NC(=O)Cc1ccc(Oc2nc3ccccc3nc2-c2cccs2)cc1)C(=O)OCC (configuration not stated) | > 100 µM | > 100 µM | > 100 µM | 27.5 µM | 62.8 µM |  | > 100 µM | 29.1 µM | > 100 µM | 47.7 µM | 81.1 µM | > 100 µM | > 100 µM | 14.2 µM | > 100 µM | 84.1 µM |  |  |  |
| N/N=C1/CCCc2nonc21 | > 100 µM | > 100 µM | > 100 µM | > 100 µM | > 100 µM | > 100 µM | > 100 µM | > 100 µM | > 100 µM | > 100 µM | > 100 µM | > 100 µM | > 100 µM | > 100 µM |  |  |  |  |  |
| COc1ccc(O)c(C=NCCCN=Cc2cc(OC)ccc2O)c1 | 83.5 µM | > 100 µM |  | 95.2 µM | > 100 µM |  | > 100 µM | > 100 µM | 69.5 µM | 65 µM | 68 µM | > 100 µM | > 100 µM | 69.9 µM | > 100 µM | > 100 µM |  |  |  |
| Cc1n[nH]c(=O)n1/N=C/c1c[nH]c2ccccc12 | > 100 µM | > 100 µM | > 100 µM | 82.3 µM | > 100 µM | > 100 µM | > 100 µM | > 100 µM | > 100 µM | > 100 µM |  | > 100 µM | > 100 µM | > 100 µM | > 100 µM | > 100 µM |  |  |  |
| NS(=O)(=O)c1ccc(CNc2nc(-c3cccs3)nc3ccc(I)cc23)cc1 | 59.7 µM | > 100 µM | 27.7 µM | 43.5 µM | 28.5 µM | 1.81 µM | 30.6 µM |  | 27.5 µM | 54.4 µM |  | 53.3 µM | 83.8 µM | 37.7 µM | 28.2 µM |  | 21.8 µM | 36.7 µM | 14 µM |
| CCOC(=O)C1=c2[nH]c3cccc4cccc(c43)n2C=C(C(C)=O)C1CC(C)=O (configuration not stated) | > 100 µM | > 100 µM | > 100 µM | > 100 µM | > 100 µM | > 100 µM | > 100 µM |  | > 100 µM | > 100 µM |  | > 100 µM | > 100 µM | > 100 µM |  | > 100 µM |  |  |  |
| CCOC(=O)c1[nH]c2ccccc2c1C(=O)C[C@H](NC(=O)C(F)(F)F)C(=O)OC | > 100 µM | > 100 µM | > 100 µM |  | > 100 µM |  | > 100 µM | > 100 µM | > 100 µM | > 100 µM | > 100 µM | > 100 µM | > 100 µM | > 100 µM | > 100 µM | > 100 µM |  |  |  |
| CCOP(=O)(C=C=C(C)C)OCC |  | > 100 µM | > 100 µM | > 100 µM | > 100 µM | > 100 µM | > 100 µM |  | > 100 µM | > 100 µM | > 100 µM | > 100 µM | > 100 µM | > 100 µM | > 100 µM | > 100 µM |  |  |  |
